From patent publication US20260185054A1, “METHOD FOR PRODUCING METABOLICALLY ACTIVATED LIVER ORGANOID, COMPOSITION, AND METHOD FOR EVALUATING TEST SUBSTANCE” (JSR CORPORATION, priority 2023, published 2026)

B1: prolactin: hormone from prolactin-secreting cells of the anterior pituitary; prolactin receptor agonist (PeproTech 100-07) (protein, UniProt P01236 29-227, looked up)
Prolactin: LPICPGGAARCQVTLRDLFDRAVVLSHYIHNLSSEMFSEFDKRYTHGRGFITKAINSCHTSSLATPEDKEQAQQMNQKDFLSLIVSILRSWNEPLYHLVTEVRGMQEAPEAILSKAVEIEEQTKRLLEGMELIVSQVHPETKENEIYPVWSGLPSLQMADEESRLSAYYNLLHCLRRDSHKIDNYLKLLKCRIIHNNNC

Experiments:
Type in all cases: cell-based, human
[1] = tested on: gluconeogenesis-related genes, urea production-related genes and CYP genes in liver organoid; test: Quantitative real-time PCR of liver organoids, A83-01 removed from differentiation medium; conditions: liver organoids cultured in DM medium from which A83-01 had been removed, versus DM medium
Description: A liver organoid was produced in the same manner as in Experimental Example 3, except that the transforming growth factor β receptor antagonist (A83-01) was removed from the differentiation medium (DM medium), and the expression of the gluconeogenesis-related genes, the urea production-related genes, and the CYP genes was examined by quantitative real-time PCR.
(§1) A total RNA was extracted from cells using Direct-zol RNA Kit micro (Zymo Research, catalog number: #R2063), and a reverse transcription reaction was carried out using a PrimeScript RT Master Mix (Takara Bio, catalog number: RR036A) to obtain a cDNA. Subsequently, quantitative real-time PCR was performed using LightCycler 480 System (Roche) and using TB Green Premix Ex Taq II (Takara Bio, catalog number: #RR820A). The cDNA of the primary human hepatocyte was diluted to create a calibration curve.

liver organoid [2] = test: Gluconeogenesis of liver organoid (glucose quantified in medium supernatant, Glucose-Glo Assay); conditions: for gluconeogenesis of the liver organoid: glucose corrected by ATP, donor 9
Protocol: Subsequently, the medium was replaced with a Gluconogenesis assay medium having the composition shown in Table 4 below (hereinafter sometimes referred to as a “GM medium”), and incubation was performed for 24 hours in an environment of 37° C., 1 atm, and a CO2 concentration of 5 v/v %. The supernatant of the medium after the incubation was collected, and glucose and urea included in the medium were quantified. The measurement results will be described later.
The glucose was measured according to a protocol of the manufacturer using a Glucose-Glo™ Assay (Promega, catalog number: J6022). […]
In addition, the liver organoid after the incubation were washed three times with Fasting Medium (hereinafter sometimes referred to as an “FM medium”) having the composition shown in Table 3, FM was added thereto at 500 μL/well, and incubation was performed for 18 hours in an environment of 37° C., 1 atm, and a CO2 concentration of 5 v/v %.
Subsequently, the medium was replaced with a Gluconogenesis assay medium having the composition shown in Table 4 (hereinafter sometimes referred to as a “GM medium”), and incubation was performed for 24 hours in an environment of 37° C., 1 atm, and a CO2 concentration of 5 v/v %. The supernatant of the medium after the incubation was collected, and glucose and urea included in the medium were quantified. The quantification of glucose and urea was performed in the same manner as in Experimental Example 1. The measurement results will be described later.
The medium of the liver organoid, which had been produced in the same manner as in Experimental Example 2 and expansion-cultured for 2 weeks, was replaced with a differentiation medium (hereinafter sometimes referred to as a “DM medium”) having the composition shown in Table 6 below at 500 μL/well, and incubated for 2 weeks in an environment of 37° C., 1 atm, and a CO2 concentration of 5 v/v %. The medium was replaced every 7 days.
Subsequently, gluconeogenesis, urea production, albumin production, and bile acid production of the liver organoid were evaluated in the same manner as in Experimental Example 2. The results of the amount of glucose produced and the amount of urea produced will be described later.

liver organoid [3] = test: Urea production of liver organoid (Quantichrom Urea Assay Kit); conditions: metformin 1 mM or 10 mM added to MM, FM and GM medium; organoid cultured in DM medium
Protocol: The urea was measured according to a protocol of the manufacturer using Quantichrom Urea Assay Kit (Bioassay Systems, catalog number: DIUR-100).

[4] = tested on: gluconeogenesis-related genes (FBP1, PCK1) in liver organoid; test: Quantitative real-time PCR of liver organoids, gluconeogenesis medium composition changed; conditions: 1 μM insulin in GM medium with 200 pg/mL glucagon and 400 ng/mL cortisol; FM 6 hours, GM 4 hours; donor 2
Protocol: A GM medium obtained by removing glucagon and cortisol from the gluconeogenesis medium (GM medium) having the composition shown in Table 4, and further adding the components shown in Table 15 was prepared. Liver organoids were produced in the same manner as in Experimental Example 3, except that the incubation was performed for 6 hours after the addition of the FM medium and then the incubation was performed for 4 hours after the addition of the GM medium. In addition, the donor of the primary human hepatocyte used for the production of the liver organoid was a donor 2.
as §1, with “Subsequently, the expression of various genes in each of the produced liver organoids was analyzed by quantitative real-time PCR (qPCR). Specifically, a total” for “A total”

[5] = factor included in differentiation medium at varied concentrations (Tables 9, 10)
[6] = factor included in gluconeogenesis medium (Tables 17, 18)

| Molecule | gluconeogenesis of the liver organoid (liver organoid [2]; [5]) | gluconeogenesis of the liver organoid (liver organoid [2]; [6]) | other results |
| --- | --- | --- | --- |
| Cc1cccc(-c2nn(C(=S)Nc3ccccc3)cc2-c2ccnc3ccccc23)n1 [A83-01] |  |  | expression of the gluconeogenesis-related genes, the urea production-related genes, and the CYP genes [1]: decreased |
| C[C@]12CCC(=O)C=C1CC[C@@H]1[C@@H]2[C@@H](O)C[C@@]2(C)[C@H]1CC[C@]2(O)C(=O)CO [cortisol, reference compound] | improved in a manner dependent on the concentrations of added factors | improved |  |
| CN(C)C(=N)N=C(N)N [metformin, reference compound] |  |  | gluconeogenesis in the liver organoid (liver organoid [2]; metformin 1 mM or 10 mM added to MM, FM and GM medium, organoid cultured in DM medium): suppressed; urea production in the liver organoid (liver organoid [3]): suppressed |
| glucagon: hormone that increases blood glucose level through glycogenolysis and gluconeogenesis in the liver (Sigma G2044) |  | improved |  |
| growth hormone: hormone secreted from the anterior pituitary; growth hormone receptor agonist (PeproTech 100-40) | improved in a manner dependent on the concentrations of added factors | improved |  |
| insulin: insulin added at 1 μM to the gluconeogenesis medium |  |  | expression of the gluconeogenesis-related genes [4]: suppresses |
| B1 | improved in a manner dependent on the concentrations of added factors | improved |  |
